Laboratory results: patent US20050014768A1, “Use of 4-oxobutanoic acid derivatives in the treatment of inflammation” (priority 2001, published 2005)

Tested on: carrageenan-induced inflammatory oedema of the rat paw
Experiment: Test of carrageenan-induced inflammatory oedema (rat paw, plethysmometry)
Type: in vivo, Rat of Wistar type
Details: for V oedema: difference in paw volume before and three hours after carrageenan, one hour before carrageenan; for Reduction in oedema: versus controls, three hours after carrageenan
Procedure: The compounds of the formula (I) were subjected to biological tests designed to reveal their anti-inflammatory activity. The in vivo activity of the compounds of the formula (I) was studied in an experimental model of inflammation in rats. Inflammatory oedema of the rat paw is induced by intradermal injection of carrageenan (1% V/V) into the hind paw of the rat. This oedema is measured by plethysmometry according to the method of Winter C. A. et al. (Proc. Soc. Exp. Biol. Med.; (1962); 111; 544-547). The substances with an anti-inflammatory effect bring about a reduction in the oedema thus created. Indomethacin is used as anti-inflammatory reference in the test.
Animal model: Rat of Wistar type
Anti-inflammatory reference: indomethacin from the company Sigma
Control: 0.5% methylcellulose hydrogel.
After fasting for one day, the volume of the right hind paw is measured [V paw]. The test compounds, the reference and the control are administered orally in a volume of 10 ml/kg. One hour after administration, oedema is induced by an intraplantar injection of 50 microlitres of carrageenan (1%, VN) hydrogel into the right hind paw. The volume of this paw is measured three hours after inducing the oedema. The intensity of the oedema [V oedema] is evaluated by the difference in the volume of the paw, before and three hours after the injection of carrageenan.

| SMILES | V oedema (oral 30 mg) [mL] | V oedema (oral 100 mg) [mL] | V oedema (oral 300 mg) [mL] | Reduction in oedema (oral 30 mg) [%] | Reduction in oedema (oral 100 mg) [%] | Reduction in oedema (oral 300 mg) [%] | V oedema (oral, dose not given) [mL] | Reduction in oedema (oral, dose not given) [%] |
| --- | --- | --- | --- | --- | --- | --- | --- | --- |
| O=C(CC(Cc1ccccc1)C(=O)O)c1ccc(F)cc1 (single isomer, unassigned; (-)) [P, (−)-2-benzyl-4-(4-fluorophenyl)-4-oxobutanoic acid] | 0.42 | 0.11 | 0.17 | −32 | −83 | −73 |  |  |
| COc1ccc2c(c1)c(CC(=O)O)c(C)n2C(=O)c1ccc(Cl)cc1 [Indomethacin, indomethacin, reference compound] |  |  |  |  |  |  | 0.20 | −67 |
